In patent publication US9828330B2, “Non-peptide BDNF neurotrophin mimetics” (PHARMATROPHIX, INC., priority 2013, dated 2017):
Several values for one entry are separate records, joined by “and”; a condition that tells them apart may be missing. Identical values can stand only once. Like-named read-outs stand apart in the source and are kept apart here.

Key:
[1] = Observations and adverse reactions after intraperitoneal administration in CD-1 mice; assay type: in vivo; conditions: IP 50 mg/kg
Method: (§1) In this study, the brain-to-plasma ratio of compounds of the invention was evaluated after intraperitoneal dosing in fasted male CD-1 mice. Test compounds were dosed at 50 mg/kg in sterile water for injection. Plasma and brain homogenate levels were determined at 1 and 3 hours post dose by LC-MS/MS. […] Penetration of the present compounds through the blood-brain barrier allows the compounds to exerts their receptor binding activity to achieve the therapeutic effects.

[2] = Brain-to-plasma ratio after intraperitoneal administration in male CD-1 mice (LC-MS/MS of plasma and brain homogenate); assay type: in vivo; conditions: for Kp at 1 h / Kp at 3 h / concentration at 1 h / concentration at 3 h: male, CD-1, mouse, ip; for Kp at 1 h / Kp at 3 h: brain/plasma
Method: as §1
All data are expressed as ng/mL (equivalent to ng/g for calculation of brain:plasma ratio) of the free drug. Samples that were below the limit of quantitation were not used in the calculation of averages.
Brain-to-plasma ratios were determined by dividing the brain concentration in ng/g by the plasma concentration in ng/g.
Brain samples were homogenized with a Virsonic 100 ultrasonic homogenizer. Each brain sample was first weighed, and then an appropriate volume of 20:80 methanol:water was added to make a 4 mL/1 gram sample. Samples were then homogenized on ice, and stored frozen until analysis.
Standards samples were prepared in either CD-1 Mouse plasma containing K2EDTA as an anticoagulant or CD-1 mouse brain homogenate. Working solutions (200 μg/mL and/or 20 μg/mL for each test compound) was prepared in 50:50 ACN:water. Then, a nine-point calibration curve was prepared at concentrations of 2000, 1500, 1000, 500, 100, 50, 20, 10, and 5 ng/mL of each test compound by serial dilution; or for a high-sensitivity method, another nine point calibration curve was prepared at concentrations of 200, 150, 100, 50, 10, 5, 2, 1, and 0.5 ng/mL of each test compound by serial dilution. Standard samples were treated identically to the study samples.
Plasma and brain homogenate samples were extracted via acetonitrile precipitation on a Tomtec Quadra 96-Model 320 liquid handling system in a 96-well plate format.
HPLC Conditions • Instrument: Perkin Elmer series 200 micropumps and Autosampler • Column: Phenomenex Synergi Polar-RP, 4μ, 80A, 50×2.0 mm • Mobile Phase Buffer: 40 mM ammonium formate, pH 3.5 • Aqueous Reservoir (A): 10% buffer, 90% water • Organic Reservoir (B): 10% buffer, 90% acetonitrile • Gradient Program:
• Flow Rate: 400 μL/min • Injection Volume: […], • Run Time: 5.0 min • Column Temperature: ambient • Autosampler Wash Solution #1: ACN:IPA:H2O 40:30:30 (v/v/v) w/0.2% formic acid • Autosampler Wash Solution #2: MeOH:H2O 50:50 (v/v) Mass Spectrometer Conditions (for Calibration Curve from 5 to 2000 ng/mL) • Instrument: PE Sciex API 4000 • Interface: Electrospray (“Turbo Ion Spray”) • Mode: Multiple Reaction Monitoring (MRM) • Gases: CUR 20, GS1 20, GS2 10, CAD Medium, IS 5200 • Source Temperature: 500° C., ihe OFF • Voltages and Ions Monitored*:
Mass Spectrometer Conditions (for Calibration Curve from 0.5 to 200 ng/mL, High Sensitivity Method) • Instrument: PE Sciex API 4000 Q TRAP • Interface: Electrospray (“Turbo Ion Spray”) • Mode: Multiple Reaction Monitoring (MRM) • Gases: CUR 20, GS1 20, GS2 10, CAD Medium, IS 5200 • Source Temperature: 500° C., ihe OFF • Voltages and Ions Monitored*: […]

[3] = 1.0 hr after IP dosing at 50 mg/kg, individual fasted male CD-1 mice, 50 mg/kg
[4] = 1.0 hr after IP dosing at 50 mg/kg, individual mice, 50 mg/kg
[5] = 1.0 hr after IP dosing at 50 mg/kg, mean of mice, 50 mg/kg
[6] = 3.0 hr after IP dosing at 50 mg/kg, individual fasted male CD-1 mice, BLQ = below 0.5 ng/mL, 50 mg/kg
[7] = 3.0 hr after IP dosing at 50 mg/kg, individual mice, 50 mg/kg
[8] = 50 mg/kg, 1.0 hr after IP dosing at 50 mg/kg, mean of mice, read-out: Average B:P Ratio
[9] = 50 mg/kg, 3.0 hr after IP dosing at 50 mg/kg, individual mice, read-out: B:P Ratio
[10] = 50 mg/kg, 3.0 hr after IP dosing at 50 mg/kg, mean of mice (Compound-3: one animal only), read-out: Average B:P Ratio
[11] = plasma, 50 mg/kg, 1.0 hr after IP dosing at 50 mg/kg, individual mice, read-out: Plasma Conc

SMILES | Adverse effects after intraperitoneal administration [1] | Brain Tissue Homogen. Conc [2, 3] | B:P Ratio [2, 4] | Brain Tissue Conc [2, 4] | Plasma Conc [2, 4] | Average B:P Ratio [2, 5] | Brain Tissue Homogen. Conc [2, 6] | Plasma Conc [2, 7] | Kp at 1 h [2, 8] | Kp at 3 h [2, 9] | Kp at 3 h [2, 10] | concentration at 1 h [2, 11] [ng/mL] | also measured
COCCN(CCOC)c1ccc(C(C)c2ccc(N(CCOC)CCOC)cc2)cc1 [Compound-2, 4,4′-(ethane-1,1-diyl)bis(N,N-bis(2-methoxyethyl)aniline)] | No adverse effects were observed | 41.6 µg/mL and 122 µg/mL and 25.2 µg/mL | 0.58 and 0.99 and 0.34 | 208 µg/mL and 610 µg/mL and 126 µg/mL | 614 ng/mL and 369 ng/mL | 0.638 | 26.3 µg/mL and 12.2 µg/mL and 6.22 µg/mL | 202 ng/mL and 108 ng/mL and 63.1 ng/mL | 0.638 ± 0.33 | 0.65 | 0.57 ± 0.079 | 359 | B:P Ratio [2, 7]: 0.56 and 0.49; Brain Tissue Conc [2, 7]: 132 µg/mL and 61.0 µg/mL and 31.1 µg/mL; Average B:P Ratio ([2]; 3.0 hr after IP dosing at 50 mg/kg, mean of mice (Compound-3: one animal only), 50 mg/kg): 0.570
CC(c1ccc(N(CCO)CCO)cc1)c1ccc(N(CCO)CCO)cc1 [Compound-3, 2,2′,2″,2′″-((ethane-1,1-diylbis(4,1-phenylene))bis(azanetriyl))-tetraethanol] | No adverse effects were observed | 2.87 µg/mL and 2.24 µg/mL | 0.27 and 0.36 | 14.4 µg/mL and 11.2 µg/mL | 52.6 ng/mL and 30.9 ng/mL | 0.328 | BLQ | 2.02 ng/mL and 1.67 ng/mL | 0.328 ± 0.048 | 1.14 | 1.14 | 31.8 | Average B:P Ratio ([2]; 3.0 hr after IP dosing at 50 mg/kg, mean of mice (Compound-3: one animal only)): 1.14; concentration at 1 h ([2]; brain homogenate, 50 mg/kg, 1.0 hr after IP dosing at 50 mg/kg, individual fasted male CD-1 mice, read-out: Brain Tissue Homogen. Conc): 2210 ng/mL; concentration at 3 h ([2]; brain homogenate, 50 mg/kg, 3.0 hr after IP dosing at 50 mg/kg, individual fasted male CD-1 mice, BLQ = below 0.5 ng/mL, read-out: Brain Tissue Homogen. Conc): 611 ng/mL; concentration at 1 h ([2]; brain, 50 mg/kg, 1.0 hr after IP dosing at 50 mg/kg, individual mice, read-out: Brain Tissue Conc): 11100 ng/mL; concentration at 3 h ([2]; brain, 50 mg/kg, 3.0 hr after IP dosing at 50 mg/kg, individual mice, read-out: Brain Tissue Conc): 3060 ng/mL; Kp at 1 h ([2]; 50 mg/kg, 1.0 hr after IP dosing at 50 mg/kg, individual mice, read-out: B:P Ratio): 0.35; concentration at 3 h ([2]; plasma, 50 mg/kg, 3.0 hr after IP dosing at 50 mg/kg, individual mice, read-out: Plasma Conc): 2.67 ng/mL
